Here are results for eight compounds from patent US20200054581A1, “APPLICATION OF TRPM7 INHIBITORS TO TREAT SLEEP APNEA AND HYPERTENSION IN OBESITY” (THE JOHNS HOPKINS UNIVERSITY, priority 2017, published 2020).

Data set [1] has as its system TRPM7. Briefly: Trpm7 mRNA level by qPCR in PC12^LEPRb cells. The data set is classed as cell-based. As to conditions: 48 hr exposure. As to the method:
FIG. 8A-8C illustrates exposure of leptin to Leprb-expressing PC12^LEPRb cells increased Trpm7 promoter activity and gene transcription. (A) PC12^LEPRb cells transfected with either pEZX-Luc-vector (empty, no insert) or pEZX-Luc-Trpm7 (promoter insert) were exposed to 1 ng/ml leptin for 48 hr prior to measurement of luciferase activity. B and C) Gene expression and promoter methylation of Trpm7 in cells exposed to leptin or 5-aza-dC for 48 hr. Trpm7 mRNA level was quantitated by qPCR. Methylation status of CpG sites in Trpm7 promoter were determined by bisulfite sequencing. A total of 40 CpG sites per clone and 6 individual clones for each treatment group were sequenced. Each row of circles represented an individual clone. Putative TF binding sites such as STAT3 and NFkB were shown in scale in Trpm7 promoter. TSS: transcription start site. Boxed regions highlight the CpG sites showing differential methylation in cells exposed to leptin or 5-aza-dC. (p<0.05). Values were mean±SD.
Leptin can regulate gene transcription by binding to ObRb to activate Janus kinase 2/signal transducers and activator of transcription 3 (JAK2/STAT3) as well as ERK1/2 and PI3K pathways (FIG. 7), which are known to regulate a wide variety of genes. To examine the possible regulation of Trpm7 transcription by leptin, we searched the Trpm7 promoter sequence for potential binding sites for transcription factors (TFs). […]
A general note: In qPCR the cycle at which signal appears reflects the starting amount.

In data set [2] the target is T1, TRPM7 (Rattus norvegicus, UniProt Q925B3).
T1 construct: PC12 cells are oxygen-sensitive, express high level of TRPM7; endogenous in cells; host or cells: PC12^LEPRb cells (PC12 transfected with leptin receptor LEPRb; TRPM7 itself not transfected)
T1 sequence (Q925B3 whole entry): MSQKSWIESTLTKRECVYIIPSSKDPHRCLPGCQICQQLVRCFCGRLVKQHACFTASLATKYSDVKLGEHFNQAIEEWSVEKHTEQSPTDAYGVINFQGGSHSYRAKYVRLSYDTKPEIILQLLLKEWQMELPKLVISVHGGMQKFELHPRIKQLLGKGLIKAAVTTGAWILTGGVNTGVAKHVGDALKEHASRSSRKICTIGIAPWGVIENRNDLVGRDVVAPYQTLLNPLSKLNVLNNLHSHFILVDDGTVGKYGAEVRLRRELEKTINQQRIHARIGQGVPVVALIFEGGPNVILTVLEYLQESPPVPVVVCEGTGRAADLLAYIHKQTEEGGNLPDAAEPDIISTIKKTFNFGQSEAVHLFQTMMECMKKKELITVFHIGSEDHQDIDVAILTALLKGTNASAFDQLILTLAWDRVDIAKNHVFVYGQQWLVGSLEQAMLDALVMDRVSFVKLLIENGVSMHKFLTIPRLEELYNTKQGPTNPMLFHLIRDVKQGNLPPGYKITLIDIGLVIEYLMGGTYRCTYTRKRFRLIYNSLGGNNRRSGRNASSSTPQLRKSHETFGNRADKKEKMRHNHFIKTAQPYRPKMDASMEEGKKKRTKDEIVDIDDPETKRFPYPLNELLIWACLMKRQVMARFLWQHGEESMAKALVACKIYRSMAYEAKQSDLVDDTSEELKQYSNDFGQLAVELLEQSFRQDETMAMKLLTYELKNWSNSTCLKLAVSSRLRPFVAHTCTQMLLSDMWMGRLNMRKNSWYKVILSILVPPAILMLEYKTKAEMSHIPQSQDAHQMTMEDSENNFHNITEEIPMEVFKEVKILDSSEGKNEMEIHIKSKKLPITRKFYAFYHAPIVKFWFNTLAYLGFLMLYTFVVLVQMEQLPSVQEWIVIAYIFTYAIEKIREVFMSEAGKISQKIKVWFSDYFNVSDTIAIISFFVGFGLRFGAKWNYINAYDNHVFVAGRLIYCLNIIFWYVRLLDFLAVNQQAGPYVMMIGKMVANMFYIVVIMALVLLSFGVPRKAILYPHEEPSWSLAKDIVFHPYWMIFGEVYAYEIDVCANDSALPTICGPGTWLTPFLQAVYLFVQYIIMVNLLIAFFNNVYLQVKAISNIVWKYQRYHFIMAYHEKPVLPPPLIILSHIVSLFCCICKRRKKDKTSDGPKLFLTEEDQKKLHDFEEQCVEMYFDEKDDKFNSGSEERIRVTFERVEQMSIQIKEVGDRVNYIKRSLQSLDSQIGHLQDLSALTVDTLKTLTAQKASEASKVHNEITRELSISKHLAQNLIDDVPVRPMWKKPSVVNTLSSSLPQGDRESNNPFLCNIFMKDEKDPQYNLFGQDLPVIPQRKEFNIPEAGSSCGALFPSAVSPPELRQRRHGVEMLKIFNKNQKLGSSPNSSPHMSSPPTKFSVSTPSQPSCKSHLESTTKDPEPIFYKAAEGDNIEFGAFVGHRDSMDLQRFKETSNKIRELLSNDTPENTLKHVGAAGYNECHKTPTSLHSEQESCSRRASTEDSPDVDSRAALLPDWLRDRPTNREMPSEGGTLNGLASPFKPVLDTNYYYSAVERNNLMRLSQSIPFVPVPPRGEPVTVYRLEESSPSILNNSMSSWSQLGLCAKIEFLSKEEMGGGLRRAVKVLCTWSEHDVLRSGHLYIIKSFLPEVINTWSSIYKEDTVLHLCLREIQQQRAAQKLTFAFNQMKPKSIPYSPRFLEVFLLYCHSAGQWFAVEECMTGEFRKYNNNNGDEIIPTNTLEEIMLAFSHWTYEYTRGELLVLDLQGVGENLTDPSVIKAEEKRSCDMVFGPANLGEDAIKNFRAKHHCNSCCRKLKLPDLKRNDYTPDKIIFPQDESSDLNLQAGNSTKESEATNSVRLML
Nature of the data set: non-selective cation (TRPM7) current, amphotericin-B perforated-patch recording in PC12^LEPRb cells. The data set is classed as cell-based. Particulars: for leptin-enhanced non-selective cation current / naltriben-induced increase of the current: effect of TRPM7 antagonist. The source says: FIG. 5A-5C illustrates leptin enhances TRPM7 current in leptin receptor expressing PC12 cells.
Leptin can regulate TRPM7 channel activity. Leptin exerts its action by binding to the long form of leptin receptors (LEPRb, ObRb), which is the only functional isoform of leptin receptor. The possible effect of leptin on TRPM7 channel activity was investigated, by using LEPRb expressing adrenal pheochromocytoma PC12 (PC12^LEPRb) cells as the cell model, because PC12 cells are oxygen-sensitive, express high level of TRPM7 and have been used widely in the studies of chemoreception. Non-selective cation current was recorded using amphotericin-B perforated-patch technique in the absence of extracellular and intracellular K^+ (replaced by Cs^+) and Mg^2+, after VDCC was blocked by nifedipine and Cl^− currents were inhibited by DIDS and niflumic acid. Voltage-ramp of −100 to +100 mV elicited an outward rectifying current that resembled TRPM7 current reported in other cell types. […] The leptin-induced current was not observed in PC12 cells transfected with a control plasmid (data not shown). The present invention provides the first evidence showing activation of leptin receptor is capable of enhancing TRPM7 activity, and it supports our hypothesis that leptin may enhance CB activity through regulation of TRPM7 activity.
Obesity is a leading cause of high cardiovascular morbidity and mortality. It is characterized by an increased leptin level, which has been implicated in increased sympathetic activity and the pathogenesis of hypertension. However, the mechanism by which leptin enhances sympathetic activity is unclear. Leptin receptors (LEPRs) are expressed in the carotid bodies, the most important arterial chemoreceptors for the cardiovascular-respiratory chemoreflex. Since leptin is known to regulate many different ion channels, we hypothesize that leptin may exert its effects through modulation of TRPM7 channel activity. To test this hypothesis, the inventors used LEPR (LEPRb) expressing pheochromocytoma (PC12^LEPRb) cells, which expresses high levels of TRPM7 channels, as the cell model. Non-selective cation channels were recorded under amphotericin-B perforated-patch techniques with K^+ replaced by Cs^+ in the presence of voltage-gated Ca^2+ channel and Cl^− channel blockers. Voltage-ramp from −100 to 100 mV activated an outward-rectifying current. Removal of extracellular divalent ions enhanced the inward current, consistent with the inward divalent ion selectivity of TRPM7.

Data set [3] has as its target TRPM7 (Homo sapiens, UniProt Q96QT4). As to conditions: cited from earlier work.
For data set [4] the following is noted: mice; cited from earlier work.
The conditions of data set [5]: humans; cited from earlier work.
Data set [6] has as its system C57BL/6J mice. Briefly: telemetric blood pressure in mice, leptin-induced hypertension. The data set is classed as in vivo, mouse. As to conditions: FTY720 SC 0.1 mg/day (approximately 3 mg/kg/day) with leptin. The procedure: Leptin signals in the CB to increase blood pressure. Male C57BL/6J mice, n=6 housed in a 12 hr light/dark cycle underwent telemetry implantation (Data Sciences) in the left femoral artery as we have described. […] After 4 day recovery mice were treated with vehicle (saline) regaining weight. On Day 17th of the protocol, carotid sinus nerve dissection (CSND, CB denervation) was performed bilaterally. After 1 week recovery, leptin and vehicle infusions were repeated. […] In contrast, CB denervation greatly modified cardiovascular effects of leptin. Indeed, in mice with intact carotid bodies leptin increased mean arterial pressure by 13 mm Hg during the day and by 16 mm Hg at night (FIG. 16A). […] Thus, leptin increases blood pressure acting in the CB.
FTY720 abolishes leptin-induced hypertension. There are multiple TRPM7 inhibitors available. We used a potent TRPM7 inhibitor FTY720 for several reasons. FTY720 is a novel immunomodulator and a structural homolog of shingosine-1-phosphate (S1P) blocking S1P effects in many diseases, including atherosclerosis, cancer, asthma, autoimmune diseases and acute lung injury. First, FTY270 has already been approved by FDA for multiple sclerosis (fingolimod). […] The experiment was performed in lean (24-26 g) C57BL/6J mice (n=5). Telemetry for continuous blood pressure recording was inserted. After 5 day recovery, mice were treated with leptin for 3 days as above. The pump was removed. After 7 day recovery, leptin was reinfused as above, but FTY720 was infused SC simultaneously at 0.1 mg/day (approximately 3 mg/kg/day).
Obesity leads to cardiovascular morbidity and mortality acting via multiple mechanisms including hypertension and obstructive sleep apnea. High levels of leptin have been associated with both conditions. The carotid bodies (CB) express leptin receptor (LepR), but the mechanism of leptin in CB is unknown. […] (CSND). In mice with intact CB, leptin increased mean arterial pressure by 13 mm Hg during the day and by 16 mm Hg at night (p=0.003 for the effect of leptin). […] Leptin receptor expression in carotid bodies of leptin receptor deficient db/db mice led to the same effect (n=6, p<0.05). […] Finally, the inventors tested the effect of a Trpm7 inhibitor on leptin-induced hypertension. The inventors performed blood pressure monitoring in male C57BL/6J mice (n=5˜9) at baseline, during leptin infusion with or without Trpm7 inhibitor, FTY720 (3 mg/kg/day, sc, n=5) for 24 hrs. […] The inventors conclude that leptin increases blood pressure acting in the CB via the Trpm7 channel.

The test system of data set [7] is rat glomus cells. As to conditions: cited from earlier work.
Data set [8] has as its system isolated CB-CSN preparations. Briefly: hypoxia-induced CSN activity in isolated superfused CB-CSN preparation. On the set-up: species or system C57B1/6J (WT) mice. Particulars: effect of nonspecific TRP channel antagonist. The source says:
SKF and 2-APB data were pooled, *p<0.05.
Leptin and carotid body function CBs are major peripheral O2 sensors, which initiate chemosensory inputs in the CSN to the respiratory centers via nucleus solitarius to evoke acute hyperventilation, and the rostral ventrolateral medulla presympathetic neurons to stimulate SNS activity. CB plays critical roles in the development of hypertension during chronic intermittent hypoxia (CIH); and the sympatho-excitation and destabilization of breathing during heart failure. However, the connection between CB and the obesity-associated hypertension and respiratory instability has not been clearly established. […] The effect of leptin on isolated CB-CSN preparations from C57B1/6J (WT) mice was studied.

Data set [9] concerns C57BL/6J mice. Nature of the data set: minute ventilation and hypoxic ventilatory response (HVR) in awake lean mice. Format: in vivo, mouse. As to conditions: NS8593 10 mg/kg/day subcutaneously via osmotic pump for 3 days with leptin. The procedure: Leptin increases the HVR in lean mice. Minute ventilation (VE) was measured at normoxic conditions and during 3-5 min exposure to 10% O2 in awake lean male C57BL/6J mice, n=4, at baseline and during leptin administration (30 μg/day for 3 days via a subcutaneous osmotic pump). Serum leptin levels increased from 0.8±0.2 ng/ml to 33.2±1.9 ng/ml, which was similar to previously reported in DIO mice and obese humans, and then returned to the baseline. Mice decreased food intake and lost weight. Leptin increased VE at baseline as a result of an increase in the metabolic rate (FIG. 10). Leptin increased the HVR by greater than 60%.
Trpm7 inhibition prevents effects of leptin on the HVR. […] Male C57BL/6J mice (n=2) were treated with leptin for 3 days as described above. After 5 day recovery, leptin and a TRPM7 blocker NS8593 (10 mg/kg/day) were administered subcutaneously via an osmotic pump for 3 days. Mice reduced food intake and lost weight with leptin, regardless of the TRPM7 inhibitor.

“Also recorded” adds a separate entry of the source. Where two headings read alike, the source gives them in different places.

Chain of TRPM7 (Homo sapiens, UniProt Q96QT4) (Q96QT4 whole entry, species assumed): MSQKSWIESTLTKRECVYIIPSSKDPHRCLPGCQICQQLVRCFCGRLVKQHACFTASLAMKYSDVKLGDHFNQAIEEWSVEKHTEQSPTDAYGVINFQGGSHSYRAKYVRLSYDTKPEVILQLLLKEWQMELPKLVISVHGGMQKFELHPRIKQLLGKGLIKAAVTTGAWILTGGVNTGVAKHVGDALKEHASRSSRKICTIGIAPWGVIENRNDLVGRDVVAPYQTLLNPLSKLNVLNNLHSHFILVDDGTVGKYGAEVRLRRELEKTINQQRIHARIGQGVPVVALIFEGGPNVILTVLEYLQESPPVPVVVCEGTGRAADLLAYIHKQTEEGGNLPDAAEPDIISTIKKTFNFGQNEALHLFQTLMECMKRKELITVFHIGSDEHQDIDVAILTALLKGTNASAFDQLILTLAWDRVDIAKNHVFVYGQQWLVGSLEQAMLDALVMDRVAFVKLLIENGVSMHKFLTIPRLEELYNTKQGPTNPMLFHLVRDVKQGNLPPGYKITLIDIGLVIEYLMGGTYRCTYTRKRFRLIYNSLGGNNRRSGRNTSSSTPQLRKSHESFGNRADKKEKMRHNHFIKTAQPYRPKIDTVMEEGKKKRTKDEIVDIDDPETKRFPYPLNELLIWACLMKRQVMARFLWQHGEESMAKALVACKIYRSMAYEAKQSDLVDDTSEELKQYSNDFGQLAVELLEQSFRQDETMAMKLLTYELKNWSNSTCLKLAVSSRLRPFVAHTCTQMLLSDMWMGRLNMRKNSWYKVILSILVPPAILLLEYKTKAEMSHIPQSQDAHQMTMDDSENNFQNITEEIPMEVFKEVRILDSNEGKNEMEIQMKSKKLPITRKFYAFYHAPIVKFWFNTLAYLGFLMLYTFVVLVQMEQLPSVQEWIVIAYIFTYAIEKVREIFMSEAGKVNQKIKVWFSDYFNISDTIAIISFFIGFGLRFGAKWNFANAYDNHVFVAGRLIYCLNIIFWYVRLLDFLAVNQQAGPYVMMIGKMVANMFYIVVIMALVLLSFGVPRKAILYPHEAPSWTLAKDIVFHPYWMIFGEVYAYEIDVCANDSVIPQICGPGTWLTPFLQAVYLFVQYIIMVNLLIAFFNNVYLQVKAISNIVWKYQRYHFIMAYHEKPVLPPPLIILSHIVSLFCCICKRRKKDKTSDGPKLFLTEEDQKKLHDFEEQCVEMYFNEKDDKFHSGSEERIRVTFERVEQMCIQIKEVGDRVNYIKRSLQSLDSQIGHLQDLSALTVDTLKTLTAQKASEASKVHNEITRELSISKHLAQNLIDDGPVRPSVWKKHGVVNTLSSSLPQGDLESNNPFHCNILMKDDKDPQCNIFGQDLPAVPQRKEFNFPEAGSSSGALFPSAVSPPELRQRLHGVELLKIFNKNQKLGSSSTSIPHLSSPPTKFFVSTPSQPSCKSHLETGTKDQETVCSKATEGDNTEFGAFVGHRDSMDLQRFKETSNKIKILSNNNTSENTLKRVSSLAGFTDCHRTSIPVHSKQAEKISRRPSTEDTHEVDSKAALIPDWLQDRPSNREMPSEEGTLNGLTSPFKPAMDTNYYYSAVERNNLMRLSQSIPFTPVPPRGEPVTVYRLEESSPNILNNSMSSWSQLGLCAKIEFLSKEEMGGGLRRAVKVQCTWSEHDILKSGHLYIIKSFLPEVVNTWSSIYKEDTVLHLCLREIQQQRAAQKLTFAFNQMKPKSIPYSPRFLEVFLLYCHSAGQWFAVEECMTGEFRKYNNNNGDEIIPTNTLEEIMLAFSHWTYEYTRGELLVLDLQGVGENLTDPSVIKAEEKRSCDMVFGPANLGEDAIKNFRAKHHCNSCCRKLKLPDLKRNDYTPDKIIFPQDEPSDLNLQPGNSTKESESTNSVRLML

With `Nc1ncn([C@H]2C[C@H](O)[C@@H](CO)O2)c(=O)n1` [5-aza-dC], the “Trpm7 mRNA level” value in data set [1] was “increased”.

On to `Oc1ccc2c3c1O[C@H]1c4oc5ccccc5c4C[C@@]4(O)[C@@H](C2)N(CC2CC2)CC[C@]314` [naltriben], for which the “outward rectifying non-selective cation (TRPM7) current” value in data set [2] (effect of TRPM7 agonist (50 μM elsewhere in the source), voltage-ramp −100 to +100 mV) is “significant augmentation; also recorded: significant increase”. In addition, the TRPM7 channel activity entry in data set [3] is on record as “activated”.

What is called half-life is the time needed for the level to fall by half in the phase considered. For the compound `CCCCCCCCc1ccc(CCC(N)(CO)CO)cc1` [FTY720, 2-amino-2-[2-(4-octylphenyl)ethyl]propane-1,3-diol], the “leptin-enhanced non-selective cation current” value is given as “significantly inhibited; also recorded: completely blocked” in [2] and “almost completely abolished” in data set [2] (listed as FTY120). The “naltriben-induced increase of the current” value in [2] is on record as “abolished”. Besides, the half-life was 19 to 28 h in data set [4] and 170 h in [5]. Also, the TRPM7 channel activity entry in data set [3] is “inhibited”. Also, the leptin-induced hypertension entry in data set [6] is listed as “completely abolished; also recorded: prevented”.

As for `NCCOB(c1ccccc1)c1ccccc1` [2-APB, 2-aminoethoxydiphenylborane], in [7], the “elevation of [Ca2+]i induced by hypoxia, NaCN and FCCP” value is recorded as “inhibited”. The “leptin-enhanced hypoxia-induced CSN activity” value in data set [8] is reported as “blocked”. Moreover, the TRPM7 channel activity entry in data set [3] was “inhibited”.

On to `CCCCCCCCCCCCC/C=C/[C@@H](O)[C@@H](N)CO` [sphingosine], for which the TRPM7 channel activity result in data set [3] is reported as “inhibited”.

As for `Cc1ccc(C(C)C)cc1O` [carvacrol], the TRPM7 channel activity result in data set [3] is “inhibited”.

On to `Cl.c1ccc2c(c1)CCC[C@H]2Nc1nc2ccccc2[nH]1` [NS8593, N-[(1R)-1,2,3,4-Tetrahydro-1-naphthalenyl]-1H-Benzimidazol-2-aminehydrochloride], for which, in data set [2], the “leptin-enhanced non-selective cation current” value was “completely blocked; also recorded: almost completely abolished” and the “naltriben-induced increase of the current” value is recorded as “abolished”. The basal ventilation entry in data set [9] is listed as “without any effect”. In addition, in data set [9] (10 mg/kg/day), the “leptin-induced hypoxic hyperventilation (VE during acute hypoxia)” value was “abolished; also recorded: prevented” and the “leptin-induced increase in the HVR” value is reported as “abolished; also recorded: abolishing”. In data set [3], the TRPM7 channel activity entry is “inhibited”.

Consider `COc1ccc(CCCOC(Cn2ccnc2)c2ccc(OC)cc2)cc1` (stereo not shown) [SKF96365], for which the “leptin-enhanced hypoxia-induced CSN activity” value in [8] is on record as “dampened; also recorded: blocked”.
